Publication PMC4065102 (PLoS ONE, 2014)
Entries after “also recorded” stand apart in the source; their conditions may differ. Bridges are numbered along the chain shown (N, C = ends). Where no end group is shown, it is not given here.

B1: annexin V: Alexa488-conjugated annexin V, apoptosis probe that binds to phosphatidylserine (protein, UniProt P08758 2-320, looked up)
Annexin A5: AQVLRGTVTDFPGFDERADAETLRKAMKGLGTDEESILTLLTSRSNAQRQEISAAFKTLFGRDLLDDLKSELTGKFEKLIVALMKPSRLYDAYELKHALKGAGTNEKVLTEIIASRTPEELRAIKQVYEEEYGSSLEDDVVGDTSGYYQRMLVVLLQANRDPDAGIDEAQVEQDAQALFQAGELKWGTDEEKFITIFGTRSVSHLRKVFDKYMTISGFQIEETIDRETSGNLEQLLLAVVKSIRSIPAYLAETLYYAMKGAGTDDHTLIRVMVSRSEIDLFNIRKEFRKNFATSLYSMIKGDTSGDYKKALLLLCGEDD
modifications: Alexa488 conjugate

What was measured:
[1] = test system: SNU-16 stomach tumor xenografts; assay: Anti-tumor treatment of mice and tumor size/weight measurement; format: in vivo; settings: 3 weeks after treatment; cisplatin 5 mg/kg i.p. once per week x2, cetuximab 1.5 mg/kg i.p. twice per week x4; p<0.05, p<0.05, p<0.001 (linear ApoPep-1 group); p<0.05, p<0.01, p<0.001 (cyclic group)
Protocol: At 3 weeks after treatment (endpoint of experiments), tumor volumes were measured and tumors were isolated for the weight measurement.
SNU-16 stomach tumor-bearing mice that were analyzed for imaging signals after the first and second round of treatment were maintained for the measurement of tumor size. […] PBS, phosphate-buffered saline; CPT, cisplatin; CET, cetuximab; CPT+CET, cisplatin plus cetuximab.

[2] = test system: SNU-16 stomach tumor xenografts; assay: In vivo NIR fluorescence imaging of tumor apoptosis; parameters: species or system mice; settings: for fluorescence intensity at tumor site in cisplatin plus cetuximab group compared to cisplatin alone and cetuximab alone / fluorescence intensity at tumor site in treated groups compared to untreated control group: FPR675-labeled peptide 800 nmol/kg i.v., imaging at 90 min; for fluorescence intensity at tumor site in cisplatin plus cetuximab group compared to cisplatin alone and cetuximab alone: after first and second round, linear: p<0.05/p<0.05 vs cisplatin, p<0.01/not significant vs cetuximab, cyclic: p<0.01/p<0.01 vs cisplatin, p<0.001/p<0.01 vs cetuximab; for fluorescence intensity at tumor site in treated groups compared to untreated control group: groups treated with cisplatin, cetuximab, cisplatin plus cetuximab, after first or second round of treatment, n = 3; for background fluorescence signals in other organs, including the liver and lung: whole body NIR fluorescence images, 90 min after i.v. FPR675-labeled peptide
Protocol: Eight-week old female athymic (nu/nu) Balb/c mice were purchased from Orient laboratories (Seongnam, Korea) and were housed under specific-pathogen-free conditions with laboratory chow and water ad libitum. Stomach tumor xenografts were established by subcutaneously injecting 1 x 10^7 SNU-16 cells in 100 µl saline into the right flank. Tumors were allowed to reach 50–60 mm^3 of volume before randomization and initiation of treatment. […] Changes in tumor size were measured over three weeks. Diameters of tumor were measured with automatic caliper. Tumor volumes were calculated using the formula: volume = (length x width x height)/2, where length, width, and height means the longest dimension, shorter dimension parallel to the mouse body, and diameter of tumor perpendicular to the length and width, respectively. Tumor weights were measured after isolation of tumor mass.
In vivo NIR fluorescence imaging was performed after the first and second round of treatment. Each treatment group (n = 6) was divided into two subgroups (n = 3) for imaging with linear and cyclic form of ApoPep-1, respectively. Linear and cyclic form of FPR675–labeled ApoPep-1 (1.45 mg/kg and 1.54 mg/kg, respectively; equivalent to 800 nmol/kg for each peptide) was injected through the tail vein into mice. At 90 min after administration, mice were anesthetized and subjected to imaging. NIR fluorescence (typically, between 650 and 1100 nm) is favored for in vivo optical imaging because of its low tissue absorption and deep tissue penetration properties. The excitation/emission wavelength of the FPR675 dye used in this study was 675/698 nm. Images were taken using the eXplore Optix optical imaging system (ART Inc., Montreal, Canada). […] The acquisition time for a whole-body scanning was 15 min per mouse. Fluorescence intensity at region of interest (ROI) was measured using a analysis software provided by the manufacturer (ART Inc.).
Figure 2 Monitoring of tumor response by in vivo imaging of apoptosis. […] After the first and second round of treatment, linear or cyclic form of FPR675 NIR fluorescence dye-labeled ApoPep-1 was intravenously injected into mice. In vivo NIR fluorescence images were taken at 90 min after administration. (A) (B) Quantification of NIR fluorescence signal intensity of the region of interest (ROI) in groups injected with linear and cyclic ApoPep-1. Bars represent the signal intensity at ROI obtained from three individual mice (mean ± S.D.). Asterisks represent statistical significance compared to PBS. Asterisks on brackets represent significance in difference between the two groups. * p<0.05, ** p<0.01, and *** p<0.001 by one-way ANOVA (n = 3 per group). (C) (D) Representative NIR fluorescence images by the uptake of linear and cyclic ApoPep-1 to tumor were shown. Scale bars represent normalized fluorescence intensity. Circles represent the ROI.

[3] = Stability of peptides in the serum; format: in vitro ADME, mice; settings: mouse serum, 100 µg peptide in 50 µl PBS + 50 µl filtered serum, 37°C, up to 24 h, C18 reverse phase FPLC, absorbance 215 nm, peak identity by MALDI-TOF MS
Protocol: Peptide stability in the serum was examined as previously described. Blood from mice was collected and allowed to clot, and then serum was obtained by centrifugation at 4°C twice followed by filtration (0.22 µm pore). Peptide (100 µg in 50 µl of PBS) was incubated with 50 µl of filtered serum at 37°C for the indicated time period. The incubated samples were diluted 100-fold and fractionated by C18 reverse phase FPLC with linear gradient of acetonitrile (Vydac protein and peptide C18, 0.1% trifluoroacetate in water for equilibration, and 0.1% trifluoroacetate in acetonitrile for elution). To confirm the identity of the peak from the profiles of C18 reverse phase FPLC, each peak was collected, vacuum dried, and analyzed by mass spectrometry (MS) using an MALDI-TOF mass spectrometer (Life Technologies, Carlsbad, CA).
Figure 5 Stability of linear and cyclic ApoPep-1 in the serum. Linear and cyclic ApoPep-1 peptides were incubated with mouse serum at 37°C for the indicated time periods. (A) (B) Linear and cyclic form of ApoPpep-1 samples and mouse serum were fractionated by C18 reverse-phase FPLC. Y axis represents the absorbance unit at 215 nm. Each peptide peak was indicated by an arrow and separable from serum peaks. (C) (D) MS spectrum of the linear and cyclic peptide peak collected from 24 h FPLC fraction and synthetic linear and cyclic ApoPep-1.

[4] = test system: SNU16 human stomach cancer cell line; assay: In vitro binding of peptides to apoptotic cells (flow cytometry); format: cell-based; settings: 10 µM FITC-conjugated peptide 4°C 1 h, or Alexa488-annexin V 15 min RT
Protocol: SNU16 human stomach cancer cell line was purchased from KCLB (Seoul, Korea). […] After treatment, cells were incubated with 10 µM of fluorescein isothiocyanate (FITC)-conjugated linear or cyclic form of ApoPep-1 at 4°C for 1 h. As control, cells were stained with Alexa488-conjugated annexin V (Life technologies, Carlsbad, CA) for 15 min at RT. Percentages of fluorescent (peptide-bound or annexin V-bound) cells were measured by flow cytometry.
Figure 1 In vitro detection of apoptosis. […] Cells were harvested and incubated with FITC-labeled ApoPep-1 at 4°C for 1 h or with annexin V at room temperature for 15 min. Data represent percentages of apoptotic cells as measured by flow cytometry. (A-C) Percentages of apoptotic cells detected by linear form of ApoPep-1, cyclic form of ApoPep-1, and annexin V, respectively. PBS, phosphate-buffered saline; CPT, cisplatin; CET, cetuximab; CPT+CET, cisplatin plus cetuximab.

| Molecule | fluorescence intensity at tumor site in cisplatin plus cetuximab group compared to cisplatin alone and cetuximab alone [2] | fluorescence intensity at tumor site in treated groups compared to untreated control group [2] | background fluorescence signals in other organs, including the liver and lung [2] | further results |
| --- | --- | --- | --- | --- |
| N.N.[Cl][Pt][Cl] [cisplatin] | – | – | – | tumor volumes compared to untreated control [1]: reduced tumor volumes |
| CQRPPR [linear ApoPep-1, Linear (CQRPPR) form of ApoPep-1, histone H1-targeting peptide; used FITC-conjugated or FPR675-labeled] | higher | significantly higher | Little background fluorescence signals | amount of peptide remaining in the serum, as calculated by peak area ([3]; listed as linear form of ApoPep-1): not significantly changed up to 24 h; also recorded: stable in the presence of serum until 24 h |
| CQRPPRC (disulfide 1-7 (inferred)) [cyclic ApoPep-1, cyclic (CQRPPRC, disulfide bonding at amino and carboxy termini) form of ApoPep-1; used FITC-conjugated or FPR675-labeled] | remarkably higher | significantly higher | Little background fluorescence signals | amount of peptide remaining in the serum, as calculated by peak area ([3]; listed as cyclic form of ApoPep-1): not significantly changed up to 24 h; also recorded: stable in the presence of serum until 24 h |
| B1 | – | – | – | percentages of apoptotic cells detected by the probe after treatment with cetuximab ([4]; cetuximab 200 µg/ml 24 h): ~40%; percentages of apoptotic cells detected by the probe after treatment with cisplatin ([4]; cisplatin 300 ng/ml 24 h): approximately 43%; percentages of apoptotic cells detected by the probe after treatment with cisplatin plus cetuximab ([4]; cisplatin 300 ng/ml plus cetuximab 200 µg/ml 24 h): ~45% |
